Measured values published in paper PMC7503370, “Cellular Signaling and Anti-Apoptotic Effects of Prolactin-Releasing Peptide and Its Analog on SH-SY5Y Cells” (International Journal of Molecular Sciences, 2020).
Numbered stars: 1 amine (or outer) side, 2 acyl side, 3 side chain; on linkers, the order of the positions; unused ones are H or OH. Side chains are listed from the residue outwards. Peptide text beside a SMILES is read from it. * marks the point of attachment. γGlu = O=C(O)[C@H](CCC(=O)[*:2])N[*:1]; Palmitoyl = CCCCCCCCCCCCCCCC(=O)*

Legend:
Format in all cases: cell-based, human
[1] = system: p-c-Jun, p-ERK, p-Bad, Bax/Bcl-2 in SH-SY5Y cells; assay: Western blotting of anti-apoptotic signaling in MG-stressed cells; conditions: 4 h pretreatment 1 × 10^−5 M, then 0.6 mM MG 16 h, vs MG, triplicates; for decrease of the MG-increased level of p-Bad (Ser112)/Bad / decrease of the MG-increased level of p-Bad (Ser136)/Bad / decrease of the MG-increased level of p-c-Jun (Ser73)/c-Jun: normalized to GAPDH
Protocol: (§1) Figure 7 PrRP31 and palm^11-PrRP31 affected anti-apoptotic signaling in SH-SY5Y cells. Immunoblots: (a) and their quantifications: (b). SH-SY5Y cells were pretreated with PrRP31 and palm^11-PrRP31 at a concentration of 1 × 10^−5 M for 4 h and then stressed with 0.6 mM MG for 16 h. Activation was expressed as the ratio of the activated protein to the total amount of the protein, both normalized to loading control, GAPDH. Data are presented as the means ± SEM as a percentage of control cells treated with medium alone. Analysis is made vs. MG by a Student’s t-test, * p < 0.5, ** p < 0.01 (each sample in triplicates).
(§2) For the investigation of the molecular mechanism of PrRP31 and its analog in the cells, signaling pathways were studied by Western blotting (WB). The cells were cultured in 6-well plates at a density of 800,000 cells per well. Growth medium was exchanged for serum-free DMEM 16 h before an experiment, and then, the cells were incubated with PrRP31, palm^11-PrRP31, or scrambled peptide at a final concentration of 1 × 10^−5 M or insulin at a concentration of 1 × 10^−7 M at 37 °C for 8 min. The cells were rapidly cooled on ice and lysed in 400 µl of Laemmli sample buffer (62.5 mM Tris-HCl with pH 6.8, 2% SDS, 10% glycerol, 0.01% bromophenol blue, 5% mercaptoethanol, 50 mM NaF, and 1 mM Na3VO4) and stored at −20 °C. Afterward, the cell lysates were analyzed by WB. SDS-electrophoresis and WB were carried out using a Criterion system with a 26-well 4−15% Criterion^TM TGX^TM Precast Midi Protein Gel (Bio-Rad, Hercules, CA, USA) at a constant voltage of 200 V or 100 V, respectively.
(§3) Subsequently, the membranes were incubated overnight with primary antibody (Ab) at 4 °C, according to the manufacturer´s instructions (Table 2). The next day, the membranes were incubated with an HRP-linked secondary antibody for 1 h at room temperature. Chemiluminescence was visualized with a ChemiDoc^TM System (Bio-Rad). Band intensities were normalized using glyceraldehyde 3-phosphate dehydrogenase (GAPDH) as an internal loading control.
(§4) For analysis of the molecular mechanism during MG stress, the growth medium was exchanged for serum-free DMEM 16 h before the experiment. The cells were pretreated with 1 × 10^−5 M PrRP31 or palm^11-PrRP31 for 4 h; then, MG was added to a final concentration of 0.6 mM, and the cells were incubated at 37 °C for 16 h. The controls and compounds were tested in triplicate.

[2] = system: p-m-Tor, p-GSK-3β, p-ERK, p-CREB in SH-SY5Y cells; assay: Western blotting with selective inhibitors of signaling pathways; conditions: insulin 1 × 10^−7 M, 37 °C, 8 min; for p-CREB after incubation with peptide, no inhibitor / p-ERK after incubation with peptide, no inhibitor / p-m-Tor (Ser2448) after application of peptide, no inhibitor: PrRP31 and palm^11-PrRP31 1 × 10^−5 M
Protocol: Immunoblots with PrRP31 and palm^11-PrRP31: (a) and insulin: (b) and their quantifications: (c). SH-SY5Y cells were incubated firstly with selective inhibitors for 2 min and then either with PrRP31 and its palmitoylated analog at a final concentration 1 × 10^−5 M, or with insulin in the final concentration 1 × 10^−7 M at 37 °C for 8 min, or alone in serum-free medium. Activated protein was normalized to loading control, GAPDH. Data are presented as the means ± SEM as a percentage of control cells treated with medium alone. Analysis is made between groups as shown in the graph by a Student’s t-test, * p < 0.5, ** p < 0.01, *** p < 0.001(each sample in triplicates).
Eight minutes of incubation was performed in a series of experiments with different exposure times (5, 10, 15, 30, and 60 min) to PrRP31 and its palmitoylated analog. Activation of analogs was strongest after 10 min. Then, the cells were treated with inhibitors of signaling pathways for 2 min, and analogs were added for 8 min. The time of exposure was set to 8 min to ensure that the incubation time for PrRP31 and its palmitoylated analog was the same. The controls and compounds were tested in triplicate in three independent experiments. The PI3K/Akt pathway is one of the main signaling pathways of insulin; therefore, insulin was used as a positive control. Scrambled peptide was used as a negative control. Activation is expressed as the ratio of the activated protein to the total amount of the protein. GAPDH was used as a loading control.
For further research, inhibitors of signaling pathways were used. The growth medium was exchanged for serum-free DMEM 16 h before the experiment. On the day of the experiment, cells were incubated for 2 min with rapamycin, SB216736 or U0126 at a final concentration of 1 × 10^−6 M; then, PrRP31, palm^11-PrRP31 or scrambled peptide at a final concentration of 1 × 10^−5 M or insulin at a concentration of 1 × 10^−7 M was added for 8 min. The plates were stored at 37 °C. The controls and compounds were tested in triplicate.

[3] = system: Tau protein phosphorylation in SH-SY5Y cells; assay: Western blotting of Tau phosphorylation in MG-stressed cells; conditions: 4 h pretreatment 1 × 10^−5 M, then 0.6 mM MG 16 h, vs MG; for attenuation of MG-increased Tau phosphorylation at Ser396: normalized to GAPDH
Protocol: as §1, with “8” for “7”, “attenuate Tau hyperphosphorylation at the epitope Ser396” for “affected anti-apoptotic signaling”, “SH-SY5Y. Immunoblots with:” for “SH-SY5Y cells. Immunoblots:”, “sample replicate” for “sample”, “triplicate).” for “triplicates).”
as §2, §3, §4

[4] = normalized to GAPDH, triplicates

Row | Structure (SMILES) | decrease of the MG-increased level of p-Bad (Ser112)/Bad [1] | decrease of the MG-increased level of p-Bad (Ser136)/Bad [1] | decrease of the MG-increased level of p-c-Jun (Ser73)/c-Jun [1] | p-CREB after incubation with peptide, no inhibitor [2] | p-ERK after incubation with peptide, no inhibitor [2] | p-m-Tor (Ser2448) after application of peptide, no inhibitor [2, 4] | Tau phosphorylation at Ser198/199/202 (Tau 1)/Tau 5 induced by MG, effect of pretreatment [3] | attenuation of MG-increased Tau phosphorylation at Ser396 ([3]; triplicates) | attenuation of the MG-increased ratio of Bax/Bcl−2 [1] | p-GSK-3β (Ser9) after incubation with peptide, no inhibitor ([2]; palm^11-PrRP31 1 × 10^−5 M, normalized to GAPDH, triplicates) | increase in unphosphorylated Tau (Tau 1 antibody, Ser198/199/202)/Tau 5 ([3]; triplicates)
1 | CC[C@H](C)[C@H](NC(=O)CNC(=O)[C@H](CCCNC(=N)N)NC(=O)[C@H](CO)NC(=O)[C@H](C)NC(=O)[C@H](Cc1ccc(O)cc1)NC(=O)[C@H](Cc1c[nH]c2ccccc12)NC(=O)[C@H](C)NC(=O)[C@@H]1CCCN1C(=O)[C@H](CC(N)=O)NC(=O)[C@@H](NC(=O)[C@H](CC(=O)O)NC(=O)[C@@H]1CCCN1C(=O)[C@@H](NC(=O)[C@H](CCCNC(=N)N)NC(=O)[C@@H](NC(=O)[C@H](CCC(=O)O)NC(=O)[C@H](CCSC)NC(=O)[C@H](CO)NC(=O)[C@H](Cc1c[nH]cn1)NC(=O)[C@H](CCCNC(=N)N)NC(=O)[C@H](Cc1c[nH]cn1)NC(=O)[C@@H](NC(=O)[C@H](CCCNC(=N)N)NC(=O)[C@@H](N)CO)[C@@H](C)O)[C@@H](C)CC)[C@@H](C)O)[C@@H](C)CC)C(=O)N[C@@H](CCCNC(=N)N)C(=O)N1CCC[C@H]1C(=O)N[C@H](C(=O)NCC(=O)N[C@@H](CCCNC(=N)N)C(=O)N[C@@H](Cc1ccccc1)C(N)=O)C(C)C [PrRP31] | tended to decrease | tended to decrease | tended to decrease | increased | increased | significantly increased | tended to decrease | 46% | – | – | –
2 | CCCCCCCCCCCCCCCC(=O)N[C@@H](CCC(=O)NCCCC[C@H](NC(=O)[C@@H](NC(=O)[C@H](CCC(=O)O)NC(=O)[C@H](CCSC)NC(=O)[C@H](CO)NC(=O)[C@H](Cc1c[nH]cn1)NC(=O)[C@H](CCCNC(=N)N)NC(=O)[C@H](Cc1c[nH]cn1)NC(=O)[C@@H](NC(=O)[C@H](CCCNC(=N)N)NC(=O)[C@@H](N)CO)[C@@H](C)O)[C@@H](C)CC)C(=O)N[C@H](C(=O)N1CCC[C@H]1C(=O)N[C@@H](CC(=O)O)C(=O)N[C@H](C(=O)N[C@@H](CC(N)=O)C(=O)N1CCC[C@H]1C(=O)N[C@@H](C)C(=O)N[C@@H](Cc1c[nH]c2ccccc12)C(=O)N[C@@H](Cc1ccc(O)cc1)C(=O)N[C@@H](C)C(=O)N[C@@H](CO)C(=O)N[C@@H](CCCNC(=N)N)C(=O)NCC(=O)N[C@H](C(=O)N[C@@H](CCCNC(=N)N)C(=O)N1CCC[C@H]1C(=O)N[C@H](C(=O)NCC(=O)N[C@@H](CCCNC(=N)N)C(=O)N[C@@H](Cc1ccccc1)C(N)=O)C(C)C)[C@@H](C)CC)[C@@H](C)CC)[C@@H](C)O)C(=O)O [palm^11-PrRP31] (H-SRTHRHSMEIK([γGlu-Palmitoyl])TPDINPAWYASRGIRPVGRF-NH2; N-terminus assumed) | 46% | 52% | 37% | increased | increased | significantly increased | – | 32% | 38% | slight increase | 32%
